≈ marks a conversion by molar mass, not a printed value.
Assays:
[1] = test system: A549 (human non-small lung cell); assay: In vitro antitumor effect against human tumor cell lines, SRB assay; assay type: cell-based; details: A 549 cells, 48 hours with drug
Protocol: (§1) Experimental 1 : In vitro antitumor effect against human tumor cell lines.
(§2) A. Tumor cell lines : A549 (human non-small lung cell)
(§3) • SKOV-3 (human ovarian) • HCT-15 (human colon) • XF-498 (human CNS) • SKMEL-2 (human melanoma)
(§4) • a. Human solid tumor cell lines, A549(non-small lung cell), SKMEL-2(melanoma), HCT-15(colon), SKOV-3(ovarian) and XF-498(CNS) were cultured in 5% CO2 incubators using the RPMI 1640 media containing 10% FBS at 37°C, while with transfer-culturing successively once or twice per week. Cell cultures were dissolved in a solution of 0.25% trysin and 3 mmol CDTA PBS(-) to separate the cells sticked on the culture media. • b. 5× 10^3∼2× 10^4 cells were added into each well of 96-well plate and cultured in 5% CO2 incubator at 37°C for 24 hours. • c. Each sample drug was dissolved in a little DMSO and diluted with the used medium to a prescribed concentration for experiment, while the final concentration of DMSO was adjusted below 0.5%. • d. Medium of each well cultured for 24 hours as above b. was removed by aspiration. Each 200µl of drug samples prepared in c. was added into each well and the wells were cultured for 48 hours. Tz (time zero) plates were collected at the point of time drugs were added. • e. According to the SRB assay method, cell fixing with TCA, staining with 0.4% SRB solution, washing with 1% acetic acid and elution of dye with 10mmol Tris solution were carried out on Tz plates and culture-ended plates, and then, OD values were measured at 520 nm.
(§5) • a. Time zero(Tz) value was determined with measuring the SRB protein value at the point of time drugs were added. • b. Control value (C) was determined with the OD value of an well untreated with drug. • c. Drug-treated test value (T) was determined with the OD value of drug-treated well. • d. Effects of drugs were estimated with growth stimulation, net growth inhibition and net killing calculated from Tz, C and T values. • e. If T ≥ Tz, cellular response function was calculated by 100x(T-Tz)/(C-Tz), and, if T 〈 Tz, by 100× (T-Tz)/Tz.

HCT-15 (human colon) = assay: as above; assay type: cell-based; details: HCT 15 cells, 48 hours with drug
Protocol: as §1, §2, §3, §4, §5

SKMEL-2 (human melanoma) = assay: as above; assay type: cell-based; details: SK-MEL-2 cells, 48 hours with drug
Protocol: as §1, §2, §3, §4, §5

SKOV-3 (human ovarian) = assay: as above; assay type: cell-based; details: SK-OV-3 cells, 48 hours with drug
Protocol: as §1, §2, §3, §4, §5

XF-498 (human CNS) = assay: as above; assay type: cell-based; details: XF-498 cells, 48 hours with drug
Protocol: as §1, §2, §3, §4, §5

Topoisomerase II = assay: Inhibition of Topoisomerase II activity (DNA relaxation assay / DNA cleavage assay with supercoiled pBR322 DNA); assay type: biochemical; details: Topo II, 30 minutes at 37°C, table does not say which of the two assays
Protocol: Experimental 3 : Inhibition effects against the Topoisomerase II activities
The present compounds were tested for inhibition of Topoisomerase II activity by means of the relaxation assay using supercoiled pBR322 DNA as the substrate. Topo II and a sample inhibitor were added to a reaction system (50mmol Tris-HCl, pH 7.5, 50mmol KCl, 20mmol MgCl2, 0.5mmol EDTA, 2mmol ATP, 60µg/mℓ BSA) containing supercoiled pBR322 DNA and reacted for 30 minutes at 37°C. Then, a quarter by volume of Stop buffer (5% SDS, 50mmol EDTA, 30% glycerol, 0.1mg/mℓ xylene cyanol, 0.1mg/mℓ BPB) was added to the reaction system to stop the reaction. The resulting product went through electrophoresis on 0.7% agarose gel and was stained by ethidium bromide solution. Mobility of DNA was measured under ultraviolet rays.
Topo II and a sample inhibitor were added to cleavage buffer (30mmol Tris-HCl, pH 7.5, 60mmol KCl, 10mmol MgCl2, 15mmol β -mercaptoethanol, 30µg/mℓ BSA) containing supercoiled pBR322 DNA and allowed to react for 30 minutes at 37°C. Then, […] by 1% was added to the reaction system to stop the reaction. Then, proteinase K was added thereto up to the concentration of 50 µg/mℓ and allowed to react for 30 minutes at 56°C. The reaction product was treated with phenol/chloroform to purify DNA, and the obtained DNA was loaded on agarose gel electrophoresis, transferred to nitrocellulose membrane and hybridized with probe DNA labelled with radioisotope. Then, the nitrocellulose membrane was covered with an X-ray film and exposed to be sensitized and developed, whereby the degree of cleavage of DNA was measured.

[2] = test system: P388 (mouse lymphoid neoplasma cell); assay: In vitro antitumor effect against animal leukemia cells, dye exclusion assay (trypan blue); assay type: cell-based; details: 48 hours, dye exclusion test using trypan blue, read-out: IC50 (concentration showing 50 % cell growth inhibition)
Excerpt: Experimental 2 : In vitro antitumor effects against animal leukemia cells.
• Tumor cell lines : P388 (mouse lymphoid neoplasma cell)
B. Method : Dye Exclusion Assay.

ICR mice = assay: Acute toxicity test (LD50), Litchfield-Wilcoxon method; assay type: in vivo; details: i.p., ICR mice (male), observed during 14 days
[3] = as above; assay type: in vivo; details: mouse, in vivo, ICR mice (male), observed during 14 days

IC50 (Topoisomerase II)	IC50 [2]	SMILES	ED50 [1]	ED50 (HCT-15 (human colon))	ED50 (SKMEL-2 (human melanoma))	ED50 (SKOV-3 (human ovarian))	ED50 (XF-498 (human CNS))	other results
3 µg/mL (≈ 6.46 µM)		COc1cccc(NC(=O)OCc2cc(N)cc(Nc3c4ccccc4nc4ccccc34)c2)c1 [Example 2, [3-(acridin-9-yl)amino-5-amino]benzyl N-(3-methoxyphenyl)carbamate]	1.12 µ g/ml	0.97 µ g/ml	1.08 µ g/ml	0.68 µ g/ml	0.71 µ g/ml	
3 µg/mL (≈ 6.07 µM)	1.1 µg/mL (≈ 2.22 µM)	COc1cc(NC(=O)OCc2cc(N)cc(Nc3c4ccccc4nc4ccccc34)c2)cc(OC)c1 [Example 3, [3-(acridin-9-yl)amino-5-amino]benzyl N-(3,5-dimethoxyphenyl)carbamate]						
1 µg/mL (≈ 2.13 µM)	1 µg/mL (≈ 2.13 µM)	Nc1cc(COC(=O)Nc2cccc(Cl)c2)cc(Nc2c3ccccc3nc3ccccc23)c1 [Example 14, [3-(acridin-9-yl)amino-5-amino]benzyl N-(3-chlorophenyl)carbamate]						
5 µg/mL (≈ 14.6 µM)		CC=Nc1cc(CO)cc(Nc2c3ccccc3nc3ccccc23)c1 [Example 35, 3-(acridin-9-yl)amino-5-(ethylideneamino)phenylmethanol]						
3 µg/mL (≈ 8.44 µM)		CCC=Nc1cc(CO)cc(Nc2c3ccccc3nc3ccccc23)c1 [Example 36, 3-(acridin-9-yl)amino-5-(propylideneamino)phenylmethanol]						
5 µg/mL (≈ 13.5 µM)		CCCC=Nc1cc(CO)cc(Nc2c3ccccc3nc3ccccc23)c1 [Example 37, 3-(acridin-9-yl)amino-5-(butylideneamino)phenylmethanol]	0.90 µ g/ml	0.35 µ g/ml	0.89 µ g/ml	0.93 µ g/ml	0.36 µ g/ml	
3 µg/mL (≈ 8.06 µM)	0.1 µg/mL (≈ 0.269 µM)	NCC(=O)Nc1cc(CO)cc(Nc2c3ccccc3nc3ccccc23)c1 [Example 44, N-[3-(acridin-9-yl)amino-5-(hydroxymethyl)phenyl] aminoethaneamide]						
3 µg/mL (≈ 6.49 µM)	0.1 µg/mL (≈ 0.216 µM)	N[C@@H](Cc1ccccc1)C(=O)Nc1cc(CO)cc(Nc2c3ccccc3nc3ccccc23)c1 [Example 46, N-[3-(acridin-9-yl)amino-5-(hydroxymethyl)phenyl] (2S)-2-amino-3-phenylpropaneamide]						

Second part, the molecule before the results:

SMILES	IC50 (Topoisomerase II)	IC50 [2]	ED50 [1]	ED50 (HCT-15 (human colon))	ED50 (SKMEL-2 (human melanoma))	ED50 (SKOV-3 (human ovarian))	ED50 (XF-498 (human CNS))	other results
N.N.[Cl][Pt][Cl] [Cisplatin, reference compound]			0.81 µ g/ml	3.03 µ g/ml	0.71 µ g/ml	0.71 µ g/ml	0.77 µ g/ml	
Nc1cc(COC(=O)Nc2ccccc2)cc(Nc2c3ccccc3nc3ccccc23)c1 [Example 1, [3-(acridin-9-yl)amino-5-amino]benzyl N-phenylcarbamate]	1 µg/mL (≈ 2.3 µM)		0.96 µ g/ml	0.57 µ g/ml	0.49 µ g/ml	1.15 µ g/ml	0.44 µ g/ml	
COc1cc(NC(=O)OCc2cc(N)cc(Nc3c4ccccc4nc4ccccc34)c2)cc(OC)c1OC [Example 4, [3-(acridin-9-yl)amino-5-amino]benzyl N-(3,4,5-trimethoxyphenyl)carbamate]	5 µg/mL (≈ 9.53 µM)		0.19 µ g/ml	0.24 µ g/ml	0.20 µ g/ml	0.19 µ g/ml	0.23 µ g/ml	
Cc1cc(C)cc(NC(=O)OCc2cc(N)cc(Nc3c4ccccc4nc4ccccc34)c2)c1 [Example 6, [3-(acridin-9-yl)amino-5-amino]benzyl N-(3,5-dimethylphenyl)carbamate]	3 µg/mL (≈ 6.49 µM)		0.72 µ g/ml	0.33 µ g/ml	0.40 µ g/ml	0.36 µ g/ml	0.37 µ g/ml	
Nc1cc(COC(=O)Nc2cc(F)cc(F)c2)cc(Nc2c3ccccc3nc3ccccc23)c1 [Example 12, [3-(acridin-9-yl)amino-5-amino]benzyl N-(3,5-difluorophenyl)carbamate]	0.5 µg/mL (≈ 1.06 µM)							LD50 (ICR mice): 150 mg/kg
COc1cc(NC(=S)OCc2cc(N)cc(Nc3c4ccccc4nc4ccccc34)c2)cc(OC)c1 [Example 18, [3-(acridin-9-yl)amino-5-amino]benzyl N-(3,5-dimethoxyphenyl)thiocarbamate]	3 µg/mL (≈ 5.88 µM)	0.7 µg/mL (≈ 1.37 µM)						
COc1cc(NC(=S)OCc2cc(N)cc(Nc3c4ccccc4nc4ccccc34)c2)cc(OC)c1OC [Example 19, [3-(acridin-9-yl)amino-5-amino]benzyl N-(3,4,5-trimethoxyphenyl)thiocarbamate]	5 µg/mL (≈ 9.25 µM)							
COc1cccc(NC(=O)OCc2cccc(Nc3c4ccccc4nc4ccccc34)c2)c1 [Example 20, 3-(acridin-9-yl)aminobenzyl N-(3-methoxyphenyl)carbamate]	3 µg/mL (≈ 6.67 µM)							
COc1cc(NC(=O)OCc2cccc(Nc3c4ccccc4nc4ccccc34)c2)cc(OC)c1 [Example 21, 3-(acridin-9-yl)aminobenzyl N-(3,5-dimethoxyphenyl)carbamate]	3 µg/mL (≈ 6.26 µM)							
COc1cc(NC(=O)OCc2cccc(Nc3c4ccccc4nc4ccccc34)c2)cc(OC)c1OC [Example 22, 3-(acridin-9-yl)aminobenzyl N-(3,4,5-trimethoxyphenyl)carbamate]	5 µg/mL (≈ 9.81 µM)							
C[C@H](N)C(=O)Nc1cc(CO)cc(Nc2c3ccccc3nc3ccccc23)c1 [Example 45, N-[3-(acridin-9-yl)amino-5-(hydroxymethyl)phenyl] (2S)-2-aminopropaneamide]	0.5 µg/mL (≈ 1.29 µM)	0.05 µg/mL (≈ 0.129 µM)	0.01 µ g/ml	0.86 µ g/ml	0.25 µ g/ml	0.21 µ g/ml	0.88 µ g/ml	LD50 at 14 days ([3]; ip): 730 mg/kg; LD50 at 14 days ([3]; iv): 133 mg/kg

Reference: patent publication EP1380574B1, “9-aminoacridine derivates and process for the preparation thereof” (Samjin Pharmaceutical Co., Ltd., priority 1998, dated 2000)
